The record followed here is ChEMBL document CHEMBL2375212, “Synthesis and evaluation of novel marine bromopyrrole alkaloid-based hybrids as anticancer agents” (Eur J Med Chem, 2013).

Assay [1] in a line: Cytotoxicity against human KB403 cells compound treated for 6 hrs measured 48 hrs post washout by MTT assay. The format is functional, cell-based. (Tetrazolium assays rely on reduction of a dye to a coloured formazan, in cell work by metabolically active cells.)
Assay [2] deals with MCF7. The experiment in a line: Cytotoxicity against human MCF7 cells compound treated for 6 hrs measured 48 hrs post washout by MTT assay. The assay is classed as functional, cell-based.
The next assay has as its system Caco-2. Nature of the assay: Cytotoxicity against human Caco2 cells compound treated for 6 hrs measured 48 hrs post washout by MTT assay. The assay is classed as functional, cell-based.
The test system of a further assay is PA-1. Nature of the assay: Cytotoxicity against human PA1 cells compound treated for 6 hrs measured 48 hrs post washout by MTT assay. The assay is classed as functional, cell-based.
The subject of the next assay is WRL68. The experiment in a line: Cytotoxicity against human WRL68 cells compound treated for 6 hrs measured 48 hrs post washout by MTT assay. The format is functional, cell-based.
A further assay deals with P388. The experiment in a line: Cytotoxicity against mouse P388 cells by MTT assay. The format is functional. The settings on record: read-out: ED50 (the source's name).
The test system of assay [3] is MCF7. The experiment in a line: Cytotoxicity against human MCF7 cells by MTT assay. The assay is classed as functional, cell-based.
A further assay has as its system COLO 205. Nature of the assay: Cytotoxicity against human COLO205 cells by MTT assay. The assay is classed as functional, cell-based.
For a further assay, the system named is HepG2. The experiment in a line: Cytotoxicity against human HepG2 cells by MTT assay. The assay is classed as functional, cell-based.
The target of assay [4] is Dual specificity mitogen-activated protein kinase kinase 1 (Homo sapiens, UniProt Q02750). The experiment in a line: Inhibition of MEK1 (unknown origin).
Assay [5] in a line: Cytotoxicity against mouse SVEC cells by MTT assay. The format is functional, cell-based.

In brackets after ≈: the same amount, converted by molar mass.

Dual specificity mitogen-activated protein kinase kinase 1, sequence (Q02750 whole entry): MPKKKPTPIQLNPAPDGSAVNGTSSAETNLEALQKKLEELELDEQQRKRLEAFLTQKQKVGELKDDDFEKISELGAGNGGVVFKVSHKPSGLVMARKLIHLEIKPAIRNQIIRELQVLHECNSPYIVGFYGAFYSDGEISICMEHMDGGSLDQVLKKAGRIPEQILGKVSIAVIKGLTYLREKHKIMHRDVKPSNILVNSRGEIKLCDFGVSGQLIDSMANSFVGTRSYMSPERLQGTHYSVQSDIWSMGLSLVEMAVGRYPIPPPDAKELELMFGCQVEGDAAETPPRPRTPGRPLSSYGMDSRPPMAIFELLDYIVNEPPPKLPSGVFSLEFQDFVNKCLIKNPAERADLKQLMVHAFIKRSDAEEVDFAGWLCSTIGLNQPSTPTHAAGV

A word on the IC50: it is the point on the concentration scale where inhibition reaches its midpoint. `Cn1c(-c2cc(-c3ccccc3)no2)cc(Br)c1Br`: the IC50 in assay [1] was at least 100 µM; with MCF7 [2] it was at least 100 µM; with Caco-2 it was 16.6 µM; in the assay on PA-1 it was at least 100 µM; in the assay on WRL68, at least 100 µM.
For the molecule `Cn1c(/C=C/C(=O)c2ccccc2O)cc(Br)c1Br`, the 50% inhibitory concentration (IC50) in assay [1] was 8.32 µM; in the assay on MCF7 [2], 2.51 µM; with Caco-2, 3.16 µM; in the assay with PA-1 it was 1.25 µM; in the assay on WRL68 it was 0.33 µM.
With `COC(=O)C[C@H]1CNC(=O)c2cc(Br)c(Br)n21`, the EC50 in the assay with P388 amounted to 30 µg/mL (≈ 82 µM).
As to `O=c1cc(-c2cc(Br)c(Br)[nH]2)oc2ccccc12`, the concentration for half-maximal inhibition (IC50) in assay [1] was 1.28 µM; in the assay with MCF7 [2] it was at least 100 µM; in the assay with Caco-2 it was at least 100 µM; with PA-1, 0.41 µM; with WRL68, at least 100 µM.
In the assay on MCF7 [3], `O=C(/C=C/c1cccc(Cl)c1)c1ccccc1` yielded an IC50 of 5.25 µg/mL (≈ 21.6 µM).
Turning to `Cn1c(/C=C/C(=O)c2ccccc2)cc(Br)c1Br`, the IC50 in assay [1] was at least 100 µM; in the assay on MCF7 [2], 35.4 µM; with Caco-2 it was at least 100 µM; with PA-1, at least 100 µM; in the assay on WRL68, at least 100 µM.
`Cn1c(/C=C/C(=O)c2ccc(O)cc2)cc(Br)c1Br`: the IC50 in assay [1] is at least 100 µM; in the assay on MCF7 [2] it was 3.12 µM; in the assay with Caco-2, 6 µM; with PA-1, 2.85 µM; in the assay on WRL68, 1.91 µM.
The matching figures for `Cn1c(/C=C/C(=O)c2cccc(N)c2)cc(Br)c1Br`: at least 100 µM, 12.4 µM, at least 100 µM, at least 100 µM and at least 100 µM.
Taken in the same sequence, the figures for `COc1ccc(OC)c(C(=O)/C=C/c2cc(Br)c(Br)n2C)c1` were at least 100 µM, 0.65 µM, at least 100 µM, 0.8 µM and 3.27 µM.
Take `Cn1c(-c2cc(-c3ccccc3O)no2)cc(Br)c1Br`: the IC50 was 2.45 µM in assay [1]; at least 100 µM in the assay with MCF7 [2]; at least 100 µM in the assay with Caco-2; at least 100 µM in the assay with PA-1; at least 100 µM with WRL68.
Consider `Cn1c(/C=C/C(=O)c2ccc[nH]2)cc(Br)c1Br`, for which the IC50 in [1] is 0.6 µM; with MCF7 [2], 0.45 µM; with Caco-2 it was at least 100 µM; with PA-1 it was 0.73 µM; in the assay with WRL68, 2.11 µM.
In the assay on COLO 205, `c1ccc(-c2cc(COc3ccccc3-c3nc4ccccc4s3)on2)cc1` yielded a 50% inhibitory concentration (IC50) of 14.2 µM.
For the molecule `COc1ccc(C(=O)/C=C/c2cc(Br)c(Br)n2C)c(OC)c1`, the IC50 is at least 100 µM in [1]; 0.08 µM with MCF7 [2]; at least 100 µM in the assay on Caco-2; 0.52 µM with PA-1; 0.64 µM in the assay on WRL68.
As for `Oc1ccccc1-c1cc(-c2cc(Br)c(Br)[nH]2)on1`, the IC50 in [1] is 16.4 µM; in the assay on MCF7 [2], at least 100 µM; in the assay on Caco-2, at least 100 µM; in the assay on PA-1, at least 100 µM; with WRL68 it was at least 100 µM.
As for `O=C(/C=C/c1cc(Br)c(Br)[nH]1)c1ccccc1O`, the IC50 in assay [1] is at least 100 µM; with MCF7 [2], 1.49 µM; with Caco-2 it was at least 100 µM; with PA-1 it was 0.33 µM; with WRL68 it was 1.42 µM.
For the molecule `CC(=O)O[C@H]1C(=O)[C@@]2(C)[C@H]([C@H](OC(=O)c3ccccc3)[C@]3(O)C[C@H](OC(=O)[C@H](O)[C@@H](NC(=O)c4ccccc4)c4ccccc4)C(C)=C1C3(C)C)[C@]1(OC(C)=O)CO[C@@H]1C[C@@H]2O` [PACLITAXEL], the half-inhibitory concentration (IC50) turned out to be 0.001 µM in assay [1] and 0.008 µM in the assay with PA-1.
For the molecule `Cn1c(-c2cc(-c3ccc[nH]3)no2)cc(Br)c1Br`, the IC50 in [1] is 3.1 µM; in the assay on MCF7 [2], at least 100 µM; with Caco-2, at least 100 µM; in the assay with PA-1, at least 100 µM; with WRL68, at least 100 µM.
`Cn1c(/C=C/C(=O)c2cc(O)ccc2O)cc(Br)c1Br`: the IC50 in assay [1] was at least 100 µM; in the assay on MCF7 [2] it was 0.32 µM; in the assay with Caco-2 it was at least 100 µM; in the assay with PA-1 it was 0.38 µM; in the assay with WRL68, 0.88 µM.
For the molecule `COC(=O)C(NCC(=O)c1cc(Br)c(Br)[nH]1)C(C)C` (centres undefined), half-maximal inhibition in the assay with HepG2 (IC50) was put at 15.3 µg/mL.
`Brc1cc(-c2cc(-c3ccc[nH]3)no2)[nH]c1Br`: the IC50 is 4.82 µM in assay [1]; at least 100 µM in the assay on MCF7 [2]; at least 100 µM in the assay with Caco-2; at least 100 µM in the assay with PA-1; at least 100 µM in the assay on WRL68.
On to `O=C(/C=C/c1cc(Br)c(Br)[nH]1)c1ccc[nH]1`, for which the IC50 in assay [1] was at least 100 µM; with MCF7 [2], 0.072 µM; in the assay on Caco-2 it was at least 100 µM; in the assay with PA-1, 0.5 µM; with WRL68, at least 100 µM.
`Nc1nc(C2CCNC(=O)c3[nH]c(Br)c(Br)c32)c[nH]1` (centres undefined) displayed a 50% inhibitory concentration (IC50) in assay [4] of 0.006 µM.
Consider `COc1ccc(OC)c(C(=O)/C=C/c2cc(Br)c(Br)[nH]2)c1`, for which the IC50 in assay [1] is at least 100 µM; with MCF7 [2] it was 0.22 µM; with Caco-2, at least 100 µM; in the assay with PA-1 it was 0.42 µM; with WRL68, 12.3 µM.
In the case of `Cn1c(/C=C/C(=O)c2cccc(O)c2)cc(Br)c1Br`, the 50% inhibitory concentration (IC50) in [1] was at least 100 µM; in the assay on MCF7 [2], 12.8 µM; with Caco-2, at least 100 µM; with PA-1, at least 100 µM; in the assay with WRL68 it was at least 100 µM.
Molecule `COc1cc(-c2cc(-c3cc(OC)c(OC)c(OC)c3)on2)ccc1O` displayed an IC50 in assay [5] of 23.5 µM.
As to `Cn1c(/C=C/C(=O)c2ccc(Cl)cc2Cl)cc(Br)c1Br`, the 50% inhibitory concentration (IC50) in assay [1] was at least 100 µM; with MCF7 [2] it was 1.84 µM; in the assay with Caco-2, at least 100 µM; with PA-1, 1 µM; with WRL68, 14.7 µM.
With `Cn1c(/C=C/C(=O)c2ccc(O)cc2O)cc(Br)c1Br`, the IC50 came out at 12 µM in assay [1]; 1.61 µM in the assay on MCF7 [2]; 3.53 µM with Caco-2; 0.83 µM in the assay on PA-1; 0.18 µM in the assay with WRL68.
Regarding `Cn1c(-c2cc(=O)c3ccccc3o2)cc(Br)c1Br`, the IC50 in assay [1] is 0.67 µM; in the assay with MCF7 [2], at least 100 µM; with Caco-2 it was at least 100 µM; in the assay on PA-1, 0.6 µM; in the assay with WRL68, at least 100 µM.
Regarding `O=C(/C=C/c1cc(Br)c(Br)[nH]1)c1ccccc1`, the IC50 in assay [1] is at least 100 µM; with MCF7 [2] it was 12.2 µM; in the assay with Caco-2, at least 100 µM; in the assay on PA-1, at least 100 µM; in the assay on WRL68, at least 100 µM.
In the case of `COc1ccc(C(=O)/C=C/c2cc(Br)c(Br)[nH]2)c(OC)c1`, the IC50 in assay [1] is at least 100 µM; with MCF7 [2], 0.03 µM; in the assay on Caco-2, at least 100 µM; with PA-1 it was 0.32 µM; in the assay on WRL68, 9.22 µM.
The molecule `O=c1cc(C2CCCCC2)oc2ccccc12` came in with a half-maximal inhibitory concentration (IC50) in the assay with HepG2 of 2.9 µM.
